From PubChem BioAssay AID328 (DTP/NCI, 2004)
Values joined by “and” are separate entries in the source; they are usually repeats but may differ in a detail not shown here. Equal entries are not always repeated. Inconclusive results and toxic doses are left out.

Tested on: BDF1 mice, P388 leukemia ip, median survival T/C
Assay: NCI In Vivo Anticancer Drug Screen. Data for tumor model P388 Leukemia (intraperitoneal) in B6D2F1 (BDF1) mice
Conditions: endpoint: median survival time, higher = longer survival
Procedure, shortened: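 Antitumour effect was judged in vivo: survival in drug-treated mice, normalised to that of vehicle-dosed controls, gives the reported T/C.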

[1] = dose: 200.0 mg/kg/injection, schedule: Q01DX009 (ip), vehicle: saline
[2] = dose: 400.0 mg/kg/injection, schedule: Q01DX009 (ip), vehicle: saline
[3] = dose: 50.0 mg/kg/injection, schedule: Q01DX009 (ip), vehicle: saline with Tween-80
[4] = dose: 100.0 mg/kg/injection, schedule: Q01DX009 (ip), vehicle: saline with Tween-80
[5] = dose: 200.0 mg/kg/injection, schedule: Q01DX009 (ip), vehicle: saline with Tween-80
[6] = dose: 100.0 mg/kg/injection, schedule: Q04DX003 (ip), vehicle: saline with Tween-80
[7] = dose: 200.0 mg/kg/injection, schedule: Q04DX003 (ip), vehicle: saline with Tween-80
[8] = dose: 400.0 mg/kg/injection, schedule: Q04DX003 (ip), vehicle: saline with Tween-80
[9] = dose: 50.0 mg/kg/injection, schedule: Q04DX003 (ip), vehicle: saline with Tween-80
[10] = dose: 50.0 mg/kg/injection, schedule: Q01DX009 (ip), vehicle: saline
[11] = dose: 100.0 mg/kg/injection, schedule: Q01DX009 (ip), vehicle: saline
[12] = dose: 100.0 mg/kg/injection, schedule: Q04DX003 (ip), vehicle: saline
[13] = dose: 200.0 mg/kg/injection, schedule: Q04DX003 (ip), vehicle: saline

In the case of CS(C)=O, the T/C [1] is reported as 100 % of control, the T/C [2] is reported as 100 % of control and the T/C (dose: 600.0 mg/kg/injection, schedule: Q01DX009 (ip), vehicle: saline) is reported as 100 % of control. The T/C (dose: 800.0 mg/kg/injection, schedule: Q01DX009 (ip), vehicle: saline) was 95 % of control.
In the case of Nc1nc2ncc(CNc3ccc(C(=O)NC(CCC(=O)O)C(=O)O)cn3)nc2c(=O)[nH]1 (stereo unspecified), the T/C (dose: 37.5 mg/kg/injection, schedule: Q01DX009 (ip), vehicle: saline with Tween-80) is reported as 92 % of control, the T/C (dose: 62.5 mg/kg/injection, schedule: Q01DX009 (ip), vehicle: saline with Tween-80) is reported as 92 % of control and the T/C (dose: 75.0 mg/kg/injection, schedule: Q01DX009 (ip), vehicle: saline with Tween-80) is reported as 107 % of control.
For [Cl][Cr]([Cl])[Cl].[NH-]CC[N-]CC[NH-], the T/C [3] was 116 % of control, the T/C [4] was 100 % of control and the T/C [5] was 100 % of control.
For C/C(=N/S(=O)(=O)c1ccc(C)cc1)OCCN(C)C, the T/C (dose: 1.5 mg/kg/injection, schedule: Q01DX009 (ip), vehicle: saline with Tween-80) was 104 % of control, the T/C (dose: 3.0 mg/kg/injection, schedule: Q01DX009 (ip), vehicle: saline with Tween-80) was 109 % of control and the T/C (dose: 3.0 mg/kg/injection, schedule: Q04DX003 (ip), vehicle: saline with Tween-80) was 100 % of control. The T/C (dose: 6.0 mg/kg/injection, schedule: Q01DX009 (ip), vehicle: saline with Tween-80) was 118 % of control and the T/C (dose: 6.0 mg/kg/injection, schedule: Q04DX003 (ip), vehicle: saline with Tween-80) was 100 % of control.
For CC(C)(S(=O)(=O)Oc1ccccc1)S(=O)(=O)Oc1ccccc1, the T/C [6] was 93 % of control, the T/C [7] was 87 % of control and the T/C [8] was 92 % of control.
In the case of CCC(=O)c1cc([N+](=O)[O-])ccc1N, the T/C [9] is reported as 90 % of control, the T/C [6] is reported as 95 % of control and the T/C [7] is reported as 109 % of control.
In the case of CCCCCCCCC(C(=O)c1ccccc1)C(O)(C(F)(F)F)C(F)(F)F (stereo unspecified), the T/C [3] is reported as 90 % of control, the T/C [4] is reported as 95 % of control and the T/C [6] is reported as 95 % of control. The T/C [5] was 109 % of control, the T/C [7] was 115 % of control and the T/C [8] was 115 % of control.
For CC(=O)OC1(C)CC(C)(C)N=N1 (stereo unspecified), the T/C (dose: 25.0 mg/kg/injection, schedule: Q01DX005 (ip), vehicle: water) was 107 % of control, the T/C (dose: 50.0 mg/kg/injection, schedule: Q01DX005 (ip), vehicle: water) was 105 % of control and the T/C (dose: 100.0 mg/kg/injection, schedule: Q01DX005 (ip), vehicle: water) was 105 % of control. The T/C (dose: 200.0 mg/kg/injection, schedule: Q01DX005 (ip), vehicle: water) was 114 % of control and the T/C (dose: 400.0 mg/kg/injection, schedule: Q01DX005 (ip), vehicle: water) was 107 % of control.
CCOC(=O)CCN(CC(=O)OCC)C(C)C was tested, and the T/C [4] was 104 % of control, the T/C [6] was 95 % of control and the T/C [5] was 104 % of control. For the same compound, the T/C [7] was 104 % of control, the T/C (dose: 400.0 mg/kg/injection, schedule: Q01DX009 (ip), vehicle: saline with Tween-80) was 109 % of control and the T/C [8] was 95 % of control.
For NC(=O)c1nc2c([nH]c1=O)CCCC2, the T/C [10] was 101 % of control, the T/C [11] was 100 % of control and the T/C [12] was 109 % of control. The T/C [1] was 110 % of control, the T/C [13] was 104 % of control and the T/C [2] was 93 % of control. For the same compound, the T/C (dose: 400.0 mg/kg/injection, schedule: Q04DX003 (ip), vehicle: saline) was 95 % of control.
In the case of CC(C)CCCC(C)C1CCC2C3C(=O)C=C4CC(O)CCC4(C)C3CCC12C (stereo unspecified), the T/C (dose: 100.0 mg/kg/injection, schedule: Q04DX003 (sc), vehicle: steriod suspending solution) is reported as 109 % of control, the T/C (dose: 200.0 mg/kg/injection, schedule: Q04DX003 (sc), vehicle: steriod suspending solution) is reported as 104 % of control and the T/C (dose: 400.0 mg/kg/injection, schedule: Q04DX003 (sc), vehicle: steriod suspending solution) is reported as 109 % of control.
In the case of CSCC(NC(=O)OCc1ccccc1)C(=O)O (stereo unspecified), the T/C [9] is reported as 95 % of control, the T/C [6] is reported as 109 % of control and the T/C [7] is reported as 100 % of control.
In the case of NC(CSC(c1ccccc1)(c1ccccc1)c1ccccc1)C(=O)O (stereo unspecified), the T/C (dose: 3.0 mg/kg/injection, schedule: Q01DX009 (ip), vehicle: Klucel (hydroxypropylcellulose) (HPC)) is reported as 122 % of control, the T/C (dose: 4.8 mg/kg/injection, schedule: Q04DX003 (ip), vehicle: Klucel (hydroxypropylcellulose) (HPC)) is reported as 108 % of control and the T/C (dose: 7.2 mg/kg/injection, schedule: Q04DX003 (ip), vehicle: Klucel (hydroxypropylcellulose) (HPC)) is reported as 100 % of control. The T/C (dose: 10.0 mg/kg/injection, schedule: Q01DX009 (ip), vehicle: Klucel (hydroxypropylcellulose) (HPC)) was 175 % of control, the T/C (dose: 14.4 mg/kg/injection, schedule: Q01DX009 (ip), vehicle: other) was 150 % of control and the T/C (dose: 16.0 mg/kg/injection, schedule: Q01DX009 (ip), vehicle: Klucel (hydroxypropylcellulose) (HPC)) was 177 % of control. For the same compound, the T/C (dose: 24.0 mg/kg/injection, schedule: Q01DX009 (ip), vehicle: other) was 115 % of control, the T/C (dose: 25.0 mg/kg/injection, schedule: Q01DX009 (ip), vehicle: Klucel (hydroxypropylcellulose) (HPC)) was 200 % of control and 204 % of control and the T/C (dose: 25.0 mg/kg/injection, schedule: Q04DX003 (ip), vehicle: Klucel (hydroxypropylcellulose) (HPC)) was 231 % of control. The T/C (dose: 35.0 mg/kg/injection, schedule: Q01DX009 (ip), vehicle: Klucel (hydroxypropylcellulose) (HPC)) was 227 % of control, the T/C (dose: 40.0 mg/kg/injection, schedule: Q01DX009 (ip), vehicle: other) was 123 % of control and the T/C (dose: 50.0 mg/kg/injection, schedule: Q01DX009 (ip), vehicle: Klucel (hydroxypropylcellulose) (HPC)) was 86 % of control. For the same compound, the T/C (dose: 50.0 mg/kg/injection, schedule: Q04DX003 (ip), vehicle: Klucel (hydroxypropylcellulose) (HPC)) was 186 % of control, the T/C (dose: 66.0 mg/kg/injection, schedule: Q04DX003 (ip), vehicle: saline) was 272 % of control and the T/C (dose: 100.0 mg/kg/injection, schedule: Q04DX003 (ip), vehicle: Klucel (hydroxypropylcellulose) (HPC)) was 240 % of control. For the same compound, the T/C [12] was 90 % of control.
For CCCCCC(C)(C)O, the T/C [10] was 95 % of control, the T/C [11] was 104 % of control and the T/C [12] was 112 % of control. For the same compound, the T/C [1] was 104 % of control and the T/C [13] was 100 % of control.
In the case of O=[N+]([O-])c1ccc(/C=N/c2ncc(Br)s2)o1, the T/C (dose: 25.0 mg/kg/injection, schedule: Q01DX009 (ip), vehicle: saline with Tween-80) is reported as 120 % of control, the T/C (dose: 25.0 mg/kg/injection, schedule: Q04DX003 (ip), vehicle: saline with Tween-80) is reported as 104 % of control and 118 % of control and the T/C [4] is reported as 90 % of control. The T/C [6] was 118 % of control and the T/C [7] was 90 % of control.
With Cc1ccc(C(SCC(N)C(=O)O)(c2ccccc2)c2ccc(C)cc2)cc1 (stereo unspecified) the T/C [3] was 268 % of control, the T/C [4] was 172 % of control and the T/C (dose: 132.0 mg/kg/injection, schedule: Q04DX003 (ip), vehicle: saline with Tween-80) was 190 % of control. For the same compound, the T/C [7] was 231 % of control.
For COC1CC(C)(O)C(OC2CCC(OC(=O)C(C)C(O)c3ccc4c(c3)C(=O)C=C(C)C4=O)C(C)O2)C(C)O1 (stereo unspecified), the T/C (dose: 1.25 mg/kg/injection, schedule: Q01DX009 (ip), vehicle: saline) was 100 % of control and 103 % of control, the T/C (dose: 2.5 mg/kg/injection, schedule: Q01DX009 (ip), vehicle: saline) was 94 % of control and 100 % of control and the T/C (dose: 5.0 mg/kg/injection, schedule: Q01DX009 (ip), vehicle: saline) was 99 % of control. The T/C (dose: 10.0 mg/kg/injection, schedule: Q01DX009 (ip), vehicle: saline) was 99 % of control.
C=CCCCCn1c2ccccc2c2c(C)c3cnccc3c(C)c21 was tested, and the T/C [6] was 109 % of control, the T/C [7] was 100 % of control and the T/C [8] was 118 % of control.
With CC[C@H]1CN2CCc3cc(OC)c(OC)cc3[C@@H]2C[C@@H]1C[C@H]1NCCc2c1[nH]c1ccc(OC)cc21 the T/C (dose: 16.0 mg/kg/injection, schedule: Q04DX003 (ip), vehicle: saline) was 183 % of control, the T/C (dose: 18.0 mg/kg/injection, schedule: Q04DX003 (ip), vehicle: acid diluted with saline) was 166 % of control and the T/C (dose: 30.0 mg/kg/injection, schedule: Q04DX003 (ip), vehicle: acid diluted with saline) was 150 % of control. For the same compound, the T/C (dose: 32.0 mg/kg/injection, schedule: Q04DX003 (ip), vehicle: saline) was 186 % of control and the T/C (dose: 64.0 mg/kg/injection, schedule: Q04DX003 (ip), vehicle: saline) was 102 % of control.
With BrCC(Br)CBr the T/C [3] was 104 % of control, the T/C [9] was 100 % of control and the T/C [4] was 122 % of control. The T/C [6] was 100 % of control and the T/C [7] was 104 % of control.
In the case of Nc1nc(C(F)(F)F)c(CCCCc2ccccc2)c(=O)[nH]1, the T/C (dose: 100.0 mg/kg/injection, schedule: Q01DX001 (ip), vehicle: Klucel (hydroxypropylcellulose) (HPC)) is reported as 111 % of control, the T/C (dose: 200.0 mg/kg/injection, schedule: Q01DX001 (ip), vehicle: Klucel (hydroxypropylcellulose) (HPC)) is reported as 117 % of control and the T/C (dose: 400.0 mg/kg/injection, schedule: Q01DX001 (ip), vehicle: Klucel (hydroxypropylcellulose) (HPC)) is reported as 98 % of control.
